This is an account of results in ChEMBL document CHEMBL4680201, “Design, synthesis, and pharmacological evaluation of 4- or 6-phenyl-pyrimidine derivatives as novel and selective Janus kinase 3 inhibitors” (Eur J Med Chem, 2020).

The structures appear in SMILES notation.

In general, IC50 refers to the point on the concentration scale where inhibition reaches its midpoint.

The target in assay [1] is T1, Tyrosine-protein kinase JAK3 (Homo sapiens, UniProt P52333).
T1 sequence (P52333 whole entry): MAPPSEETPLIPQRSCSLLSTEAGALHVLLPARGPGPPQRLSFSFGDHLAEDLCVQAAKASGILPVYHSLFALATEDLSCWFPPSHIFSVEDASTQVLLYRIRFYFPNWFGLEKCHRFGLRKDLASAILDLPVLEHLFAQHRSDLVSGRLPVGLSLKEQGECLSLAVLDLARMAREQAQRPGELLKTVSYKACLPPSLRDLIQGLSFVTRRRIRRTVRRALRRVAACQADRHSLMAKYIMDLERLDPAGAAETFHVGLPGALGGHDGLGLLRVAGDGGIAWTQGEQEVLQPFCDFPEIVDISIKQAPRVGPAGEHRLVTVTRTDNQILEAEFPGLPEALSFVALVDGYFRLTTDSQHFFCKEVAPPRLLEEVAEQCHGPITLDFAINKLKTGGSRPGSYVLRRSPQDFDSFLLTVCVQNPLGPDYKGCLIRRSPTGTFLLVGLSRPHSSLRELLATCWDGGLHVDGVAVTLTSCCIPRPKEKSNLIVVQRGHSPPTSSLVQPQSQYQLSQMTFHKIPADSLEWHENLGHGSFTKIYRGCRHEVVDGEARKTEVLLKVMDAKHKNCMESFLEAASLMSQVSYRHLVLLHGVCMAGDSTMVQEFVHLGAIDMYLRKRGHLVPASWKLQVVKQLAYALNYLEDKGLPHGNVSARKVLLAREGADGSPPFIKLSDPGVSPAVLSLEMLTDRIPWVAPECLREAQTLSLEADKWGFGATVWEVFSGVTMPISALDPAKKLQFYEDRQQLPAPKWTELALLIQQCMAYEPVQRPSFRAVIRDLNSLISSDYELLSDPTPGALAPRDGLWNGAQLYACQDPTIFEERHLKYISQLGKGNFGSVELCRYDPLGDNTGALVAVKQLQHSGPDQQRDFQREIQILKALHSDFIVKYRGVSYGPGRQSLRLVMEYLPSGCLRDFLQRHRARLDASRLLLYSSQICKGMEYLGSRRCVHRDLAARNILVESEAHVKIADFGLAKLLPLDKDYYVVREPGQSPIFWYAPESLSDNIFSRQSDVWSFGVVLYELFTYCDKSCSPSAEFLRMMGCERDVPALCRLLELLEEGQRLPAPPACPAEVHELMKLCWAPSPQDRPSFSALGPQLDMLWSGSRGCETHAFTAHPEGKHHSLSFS

In assay [2] the target is Non-receptor tyrosine-protein kinase TYK2 (Homo sapiens, UniProt P29597). The assay can be described thus: Inhibition of recombinant human N-terminal GST-tagged TYK2 cytoplasmic domain (833 to 1187 residues) expressed in baculovirus expression system using TK-substrate-biotin preincubated for 5 mins followed by substrate addition and measured after 30 mins by HTRF assay. Background: TR-FRET usually uses a lanthanide donor and a delayed reading to cut background.

Assay [3] concerns the target Tyrosine-protein kinase JAK2 (Homo sapiens, UniProt O60674). The assay is classed as ADME.
Assay [4] addresses Tyrosine-protein kinase JAK1 (Homo sapiens, UniProt P23458). The assay can be described thus: Inhibition of recombinant human GST-tagged JAK1 cytoplasmic domain (866 to 1154 residues) expressed in baculovirus expression system using TK-substrate-biotin preincubated for 5 mins followed by substrate addition and measured after 30 mins by HTRF assay.

Tyrosine-protein kinase JAK2, sequence (O60674 whole entry, the tested form may be a part): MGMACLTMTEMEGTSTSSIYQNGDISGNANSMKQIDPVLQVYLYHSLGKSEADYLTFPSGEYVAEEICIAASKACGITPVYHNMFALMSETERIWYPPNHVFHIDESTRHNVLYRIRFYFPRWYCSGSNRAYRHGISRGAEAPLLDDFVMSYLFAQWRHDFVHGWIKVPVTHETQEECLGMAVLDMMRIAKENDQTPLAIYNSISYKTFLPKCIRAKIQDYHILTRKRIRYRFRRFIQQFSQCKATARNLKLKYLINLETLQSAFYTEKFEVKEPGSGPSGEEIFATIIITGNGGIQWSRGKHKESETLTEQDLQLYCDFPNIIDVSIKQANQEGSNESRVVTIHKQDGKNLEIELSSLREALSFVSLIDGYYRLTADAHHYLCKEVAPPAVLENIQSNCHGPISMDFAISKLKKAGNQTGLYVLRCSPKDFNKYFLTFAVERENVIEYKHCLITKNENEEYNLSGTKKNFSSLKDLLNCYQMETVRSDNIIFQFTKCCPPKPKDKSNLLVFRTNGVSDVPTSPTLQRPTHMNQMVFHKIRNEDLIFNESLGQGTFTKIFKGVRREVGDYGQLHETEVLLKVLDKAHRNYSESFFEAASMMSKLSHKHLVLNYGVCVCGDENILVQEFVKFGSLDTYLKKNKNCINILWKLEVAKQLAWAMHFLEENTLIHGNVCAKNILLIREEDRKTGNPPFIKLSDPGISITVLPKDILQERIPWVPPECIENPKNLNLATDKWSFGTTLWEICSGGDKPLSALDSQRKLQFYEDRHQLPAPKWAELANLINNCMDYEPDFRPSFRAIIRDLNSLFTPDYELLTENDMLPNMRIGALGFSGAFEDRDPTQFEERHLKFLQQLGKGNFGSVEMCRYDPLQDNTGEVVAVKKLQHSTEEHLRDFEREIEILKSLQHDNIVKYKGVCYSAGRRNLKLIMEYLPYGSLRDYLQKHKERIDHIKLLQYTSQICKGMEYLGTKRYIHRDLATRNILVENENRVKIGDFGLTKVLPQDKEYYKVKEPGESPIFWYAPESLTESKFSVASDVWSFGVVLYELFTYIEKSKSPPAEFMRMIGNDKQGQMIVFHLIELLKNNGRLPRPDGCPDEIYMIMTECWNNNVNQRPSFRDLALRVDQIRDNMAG
Non-receptor tyrosine-protein kinase TYK2, sequence (P29597 whole entry, the tested form may be a part): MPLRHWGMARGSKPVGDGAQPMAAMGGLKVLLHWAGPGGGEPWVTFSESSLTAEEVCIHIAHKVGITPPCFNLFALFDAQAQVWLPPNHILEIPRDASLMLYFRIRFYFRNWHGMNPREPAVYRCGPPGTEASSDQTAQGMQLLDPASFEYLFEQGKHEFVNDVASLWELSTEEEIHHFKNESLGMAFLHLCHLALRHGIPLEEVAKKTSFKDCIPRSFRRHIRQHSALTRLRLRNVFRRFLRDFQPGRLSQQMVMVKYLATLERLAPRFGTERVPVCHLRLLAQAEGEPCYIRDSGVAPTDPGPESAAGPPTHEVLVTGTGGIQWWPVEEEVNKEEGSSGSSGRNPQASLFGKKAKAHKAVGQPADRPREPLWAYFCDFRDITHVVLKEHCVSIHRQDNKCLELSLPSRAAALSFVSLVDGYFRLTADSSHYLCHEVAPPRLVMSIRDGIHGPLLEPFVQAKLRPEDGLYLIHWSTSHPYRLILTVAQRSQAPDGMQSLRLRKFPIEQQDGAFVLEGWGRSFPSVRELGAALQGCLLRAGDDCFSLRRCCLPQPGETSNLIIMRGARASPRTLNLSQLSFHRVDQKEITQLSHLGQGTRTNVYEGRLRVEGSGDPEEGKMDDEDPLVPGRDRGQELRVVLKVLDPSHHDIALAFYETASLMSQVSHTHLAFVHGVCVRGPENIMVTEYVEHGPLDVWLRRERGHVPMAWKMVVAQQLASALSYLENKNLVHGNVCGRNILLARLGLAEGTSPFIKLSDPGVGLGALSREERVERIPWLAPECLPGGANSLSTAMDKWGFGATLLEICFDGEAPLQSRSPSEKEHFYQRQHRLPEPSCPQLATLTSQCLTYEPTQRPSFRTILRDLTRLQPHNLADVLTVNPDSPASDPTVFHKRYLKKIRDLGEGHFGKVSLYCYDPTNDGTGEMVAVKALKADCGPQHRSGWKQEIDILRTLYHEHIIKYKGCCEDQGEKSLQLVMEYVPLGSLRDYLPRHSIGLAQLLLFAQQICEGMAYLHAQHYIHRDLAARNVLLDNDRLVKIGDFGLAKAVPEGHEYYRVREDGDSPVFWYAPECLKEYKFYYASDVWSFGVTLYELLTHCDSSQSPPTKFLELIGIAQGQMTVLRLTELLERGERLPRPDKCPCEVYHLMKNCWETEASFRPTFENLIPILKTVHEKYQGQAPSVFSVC
Tyrosine-protein kinase JAK1, sequence (P23458 whole entry, the tested form may be a part): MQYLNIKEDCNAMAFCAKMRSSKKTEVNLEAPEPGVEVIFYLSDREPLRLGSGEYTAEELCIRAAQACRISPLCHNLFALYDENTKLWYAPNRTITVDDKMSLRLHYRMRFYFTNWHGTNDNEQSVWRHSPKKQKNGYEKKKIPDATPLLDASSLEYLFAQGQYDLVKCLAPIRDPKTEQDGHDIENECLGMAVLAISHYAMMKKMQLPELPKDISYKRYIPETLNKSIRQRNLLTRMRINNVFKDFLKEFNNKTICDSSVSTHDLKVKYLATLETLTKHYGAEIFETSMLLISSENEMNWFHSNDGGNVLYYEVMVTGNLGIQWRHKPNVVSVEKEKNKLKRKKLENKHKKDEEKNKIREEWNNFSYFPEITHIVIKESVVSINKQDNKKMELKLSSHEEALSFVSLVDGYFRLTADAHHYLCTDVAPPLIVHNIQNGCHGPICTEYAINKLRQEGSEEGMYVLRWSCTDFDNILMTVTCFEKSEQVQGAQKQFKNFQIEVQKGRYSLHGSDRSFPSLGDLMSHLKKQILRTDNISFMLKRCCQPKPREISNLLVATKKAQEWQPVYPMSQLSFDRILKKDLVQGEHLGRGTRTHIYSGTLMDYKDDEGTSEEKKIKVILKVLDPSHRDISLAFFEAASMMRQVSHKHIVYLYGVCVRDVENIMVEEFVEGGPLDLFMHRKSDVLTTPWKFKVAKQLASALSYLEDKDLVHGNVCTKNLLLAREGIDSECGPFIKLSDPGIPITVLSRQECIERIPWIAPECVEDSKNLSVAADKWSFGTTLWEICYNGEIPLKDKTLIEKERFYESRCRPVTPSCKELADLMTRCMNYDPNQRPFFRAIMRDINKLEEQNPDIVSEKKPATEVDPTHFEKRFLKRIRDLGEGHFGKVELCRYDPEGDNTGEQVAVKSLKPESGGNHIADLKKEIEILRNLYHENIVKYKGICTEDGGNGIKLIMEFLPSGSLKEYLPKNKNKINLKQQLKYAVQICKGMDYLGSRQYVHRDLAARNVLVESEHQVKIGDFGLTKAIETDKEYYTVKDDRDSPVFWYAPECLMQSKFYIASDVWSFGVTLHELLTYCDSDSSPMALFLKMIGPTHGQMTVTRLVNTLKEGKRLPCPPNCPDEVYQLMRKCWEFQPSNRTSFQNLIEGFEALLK

For `C/C=C/C(=O)Nc1cccc(-c2cc(Nc3cnn(CCOC)c3)ncn2)c1`, the half-inhibitory concentration (IC50) in assay [1] was 0.029 µM; in assay [2], over 3 µM; in assay [3] it was 2.58 µM; in assay [4] it was 1.29 µM.
On the same counts, the results for `C=CC(=O)Nc1cccc(-c2ccnc(Nc3cnn(CCOC)c3)n2)c1` are 0.055 µM, 2.87 µM, 1.29 µM and 1.1 µM.
Consider `N#CCC(=O)Nc1cccc(-c2ccnc(Nc3ccc(N4CCOCC4)cc3)n2)c1`, for which the IC50 in assay [1] is 0.152 µM; in assay [2], over 3 µM; in assay [3], 0.216 µM; in assay [4], 2.23 µM.
For `COCCn1cc(Nc2cc(-c3cccc(NC(=O)CC#N)c3)ncn2)cn1`, in that order: 0.065 µM, 2.26 µM, 0.587 µM and 0.322 µM.
Regarding `C=CC(=O)Nc1cccc(-c2ccnc(Nc3ccc(N4CCOCC4)cc3)n2)c1`, the half-maximal inhibitory concentration (IC50) amounted to 0.03 µM in assay [1], 2.44 µM in assay [2], 1.8 µM in assay [3] and 2.12 µM in assay [4].
In the case of `C/C=C/C(=O)Nc1cccc(-c2cc(Nc3ccc(N4CCOCC4)cc3)ncn2)c1`, the IC50 in assay [2] is over 3 µM; in assay [3], 2.13 µM; in assay [4], 2.88 µM.
In the case of `COCCn1cc(Nc2nccc(-c3ccc(NC(=O)CC#N)cc3)n2)cn1`, the figures for the IC50 in assay [1], in assay [2] and in assay [4] were 0.024 µM, 2.5 µM and 0.183 µM, respectively.
Turning to `N#CCC(=O)Nc1ccc(-c2ccnc(Nc3ccc(N4CCOCC4)cc3)n2)cc1`, the IC50 is over 3 µM in assay [2] and 0.433 µM in assay [4].
For the compound `COCCn1cc(Nc2cc(-c3ccc(NC(=O)CC#N)cc3)ncn2)cn1`, the IC50 worked out at 0.086 µM in assay [1], 1.87 µM in assay [2], 1.46 µM in assay [3] and 2.68 µM in assay [4].
As for `C/C=C/C(=O)Nc1cccc(-c2ccnc(Nc3ccc(N4CCOCC4)cc3)n2)c1`, the IC50 worked out at 0.033 µM in assay [1], 2.65 µM in assay [2] and 2.79 µM in assay [3].
Turning to `C/C=C/C(=O)Nc1ccc(-c2ccnc(Nc3cnn(CCOC)c3)n2)cc1`, the IC50 in assay [1] is 0.014 µM; in assay [2] it was over 3 µM; in assay [3], 1.98 µM; in assay [4], 1.44 µM.
Consider `C=CC(=O)Nc1ccc(-c2cc(Nc3cnn(CCOC)c3)ncn2)cc1`, for which the IC50 in assay [1] is 0.067 µM; in assay [2], over 3 µM; in assay [3], over 3 µM; in assay [4], 1.66 µM.
For `C=CC(=O)Nc1ccc(-c2cc(Nc3ccc(N4CCOCC4)cc3)ncn2)cc1`, the IC50 in assay [1] is 0.112 µM; in assay [3], 1.57 µM; in assay [4], 0.961 µM.
